{"source": "patent US20220313620A1", "about": "“COMPOSITION FOR PREVENTING AND TREATING TAUOPATHIES” (SERVICIO ANDALUZ DE SALUD, priority 2019, published 2022)", "key": {"[1]": {"tested_on": "Mitogen-activated Protein Kinase (MAPK/ERK1/2)", "test": "Hippocampal MAPK/ERK1/2 (western blot) after 10 days of oral drinking", "format": "in vivo, Wistar rats", "conditions": "oral by drinking 100 mg/Kg for 10 days, hippocampus, FIG. 10", "method": "Animal experimental procedures were carried out in accordance with the European Communities directive 2010/63/EU and Spanish legislation (Real Decreto 53/2013). The protocol was approved by the Research and approved by Ethics Committee for Animal Experiments of the University of Malaga, Spain. In accordance with the ARRIVE guidelines, all efforts were made to minimize animal suffering and to reduce the number of animals used per experimental group. Chronic drinking experiments on Wistar rats were performed on 20 male rats. All adult rats, ageing 2 months (≈300 g of body weight), were provided by Charles River Laboratories (Barcelona, Spain). The animals were housed individually under a standard 12 h light-dark cycle in a room with temperature and humidity control. Water and rat chow pellets were provided ad libitum throughout the course of the present study. […]\nWestern Blot Analysis. […] Bands were quantified by densitometric analysis using ImageJ software (Rasband, WS, ImageJ, US National Institutes of Health, Bethesda, Md., USA). […] The results were expressed as the protein/α-Adaptin ratio or phosphorylated/total protein ratio and normalized to the control group (Y axis represents ‘fold mean of the control values’).\nAll data are expressed as mean±SEM. […]"}, "Ghrelin": {"tested_on": "Ghrelin", "test": "Plasma ghrelin (ELISA) after acute oral gavage in fasted rats", "format": "in vivo", "conditions": "adult male Wistar rats", "method": "(§1) The protocol was approved by the Ethics Committee for Animal Experiments of the University of Malaga.\n(§2) D-Pinitol (3-0-methyl-D-chiro-inositol) was generously provided by EURONUTRA SL (https://www.euronutra.com/, Malaga, Spain), in the form of crystalline fine powder (lot: PPN-M0201). For acute treatments, D-Pinitol was dissolved in water to be administered by gavage (orally) at different concentrations (100 mg/Kg and 500 mg/Kg), drug was administered at a volume of 1 ml/kg.\nAfter 18 hours of fasting, D-Pinitol dissolved in water was administered acutely by gavage (100 mg/kg in a first study, and 500 mg/kg in a subsequent study). After administration, the animals were sacrificed in groups at different times (being time 0 the administration of D-Pinitol). For the first study (100 mg/kg), groups of animals were sacrificed at times: 10, 20, 30, 60, 120, 240 and 360 minutes after administration; for the second study (500 mg/kg), animals were sacrificed at times: 60, 120 and 240 minutes after administration. As a control group, a group was administered only with water (by gavage).\nAnimals were anesthetized with sodium pentobarbital (50 mg/Kg, i.p.), blood, brain and liver samples were collected. Blood was centrifuged (2100 g for 8 min, 4° C.) and the plasma kept for further analysis. Liver and brain samples were flash-frozen in liquid N2, then stored at −80° C. until further analysis.\nThe plasma levels of insulin and ghrelin were determined with an enzyme-linked immunosorbent assay (ELISA) method using commercial kits: EMD Millipore Corporation (Billerica, Mass., USA) Cat. #EZRMI-13K and Cat. #EZRGRT-91K, respectively. Glucagon levels in plasma was determined with a Glucagon Enzyme Immunoassay (EIA) Kit: Cat. #RAB0202 Sigma-Aldrich (Saint Louis, Mo., USA). All serum samples were assayed in duplicate within one assay, and results were expressed in terms of the particular standard hormone."}, "Glucagon": {"tested_on": "Glucagon", "test": "Plasma glucagon (EIA) after acute oral gavage", "format": "in vivo", "conditions": "oral 500 mg/kg, adult male Wistar rats, FIG. 3E", "method": "as §1, §2\nAfter 18 hours of fasting, D-Pinitol dissolved in water was administered acutely by gavage (100 mg/kg in a first study, and 500 mg/kg in a subsequent study). After administration, the animals were sacrificed in groups at different times (being time 0 the administration of D-Pinitol). For the first study (100 mg/kg), groups of animals were sacrificed at times: 10, 20, 30, 60, 120, 240 and 360 minutes after administration; for the second study (500 mg/kg), animals were sacrificed at times: 60, 120 and 240 minutes after administration. […]\nThe plasma levels of insulin and ghrelin were determined with an enzyme-linked immunosorbent assay (ELISA) method using commercial kits: EMD Millipore Corporation (Billerica, Mass., USA) Cat. #EZRMI-13K and Cat. #EZRGRT-91K, respectively. Glucagon levels in plasma was determined with a Glucagon Enzyme Immunoassay (EIA) Kit: Cat. #RAB0202 Sigma-Aldrich (Saint Louis, Mo., USA). […]"}}, "data": [{"smiles": "COC1[C@@H](O)[C@@H](O)C(O)[C@H](O)[C@H]1O", "note": "(stereo partly drawn) [DPIN, (1S,2S,4S,5R)-6-methoxycyclohexane-1,2,3,4,5-pentol]", "values": [{"measurement": "kinase activation and total expression of MAPK/ERK1/2", "setting": "[1]", "value": "No other changes"}, {"measurement": "circulating plasma Ghrelin concentration", "setting": "Ghrelin; oral 100 mg/kg in sterile water, FIG. 2A", "value": "increase"}, {"measurement": "circulating plasma Ghrelin concentration", "setting": "Ghrelin; oral 500 mg/kg, FIG. 3A / FIG. 4", "value": "increase"}, {"measurement": "glucagon secretion", "setting": "Glucagon", "value": "Increase"}]}]}
